# Assays:
# CLK1 = CLK1 (Homo sapiens, UniProt P49759); assay: Z'-LYTE activity assay (ThermoFisher SelectScreen); type: biochemical; design: purchased SelectScreen Services (ThermoFisher); conditions: [ATP] = Kmapp
# From the text: In vitro biochemical assays. Several small molecule assays were outsourced to SelectScreen Services (ThermoFisher) for STK33 and for off-target kinases (data sets are available on demand).
# These assays are LanthaScreen (binding assay) and Z’-LYTE (activity assay). Dose-responses were done with at least 5 different concentrations in duplicates, and parameters were optimized by calculations described below and provided with standard errors. […]
# Calculation of Ki values for kinase inhibitors from Z’-LYTE inhibition data. The Morrison equation with [ATP] = Kmapp for competitive inhibition (GraphPad Prism 7, San Diego, CA) was used to get Ki values. Since Kd and Ki values are defined the same way, in other words, Kd = [E] [I] / [EI] = Ki, Kd and Ki values can be compared. […]
# male mice = assay: Scanning electron microscopy (SEM) of sperm morphology; type: in vivo; conditions: protocol 2 at 63 days, n = 3
# From the text: Fig. 4. CDD-2807 treatment induces a reversible contraceptive effect. […] Fertility was restored to levels equal to those of controls after halting CDD-2807 treatment for 3 weeks in protocol 1; in protocol 2, fertility was restored an average of 53.5 ± 5.1 days after completion of CDD-2807 treatment compared to the controls (3.5 ± 0.2 days). (C) There are no observed morphological differences in testes from control and CDD-2807 treatment in mice from protocol 2 at 63 days; testis size of CDD-2807–treated mice in protocol 2 (87.13 ± 5.87 mg) was not statistically changed versus control males (111.10 ± 6.50 mg). […] (H) For SEM quantification, a minimum of 100 sperm per group were counted and determined to be either normal or abnormal (having head or tail defects). Counts were totaled and then turned into a percentage of normal versus abnormal sperm per group. By SEM analysis, 94.7 ± 2.7% of the sperm in the CDD-2807–treated mice (n = 3) in protocol 2 had morphologic defects at 63 days, including head and tail defects as shown, compared to only 10.9 ± 2.7% abnormal sperm for the controls (n = 3). Scale bars: 0.5 cm (C), […] (H). **P < 0.01, ***P < 0.001, ****P < 0.0001.
# [1] = CDD-2807 concentrations in mouse brain, liver, lung, and testis; type: in vivo, mice
# Description: Pharmacokinetics (PK) of CDD-2807 in mice. The pharmacokinetic studies (72) of CDD-2807 were performed at three doses via intraperitoneal (i.p.) injection and oral (p.o.) administration.
# CDD-2807 was dissolved in 10% Captisol containing 5% DMSO to prepare the solutions of 0.5 mg/mL, 2.5 mg/mL and 5.0 mg/mL. Twelve male mice (strain: C57BL/6NJ, 8−12 weeks) were divided equally and randomly into 4 groups (n = 3 for each dose). One group of mice were administered 5 mg/kg CDD-2807 (i.p., 10 µL/g of 0.5 mg/mL solution), the second group 25 mg/kg CDD-2807 (i.p., 10 µL/g of 2.5 mg/mL solution), the third group 5 mg/kg CDD-2807 (p.o., 10 µL/g of 0.5 mg/mL solution), and the fourth group 50 mg/kg CDD-2807 (p.o., 10 µL/g of 5.0 mg/mL solution). At 0, 5, 10, 15, 30 min, 1, 2, 4, 6, 8, 24 h post-dose, around 20 µL of blood was collected from the tail vein and anti-coagulated by heparin. The blood samples were centrifuged at 2000 g for 3 min at 4°C, and the plasma samples were transferred to tubes and stored at −80°C before analysis. All the samples were analyzed by the Thermo TSQ Quantis MS coupled with a Thermo Vanquish UHPLC (San Jose, CA). CDD-2807 was separated on a Luna C18 column (1 mm × 50 mm, 1.6 µm, Phenomenex, Torrance, CA), and eluted by a water-acetonitrile mobile phase system (both containing 0.1% formic acid, v/v) at the flow rate of 0.15 mL/min. CDD-2807 was monitored under the SRM mode coupled with a positive ESI source. The SRM ion pairs were 447→321 for CDD-2807. The ion spray voltage was set at 3500 V. High-purity nitrogen was used as the sheath gas (35 arbitrary unit), auxiliary gas (7 arbitrary unit), and high-purity argon was used as the collision gas. The temperatures of the ion transfer tube and the vaporizer were set at 300°C and 275°C, respectively. The concentration of CDD-2807 in plasma was quantified using individual calibration curves. The calibration curve was regressed with a weight of 1/x2 with high linearity (r2 >0.99). PK parameters, including half-time (t1/2), area under the plasma concentration– time curve from zero to infinity (AUC0–∞), clearance normalized by the bioavailability (CL/F), volume of distribution normalized by the bioavailability (Vd/F), and the mean residence time (MRT), were calculated by WinNonlin software (Certara, Princeton, NJ) by noncompartmental […]
# analysis. […]
# CDD-2807 concentrations in mouse brain, liver, lung, and testis. Tissue samples harvested from mice on day 45 of protocol 1 and at 24-hour, day 7, and day 63 of protocol 2 were weighed and snap-frozen in liquid nitrogen. The samples were stored at −80°C before analysis. Twenty-five mg of tissue was homogenized in 150 µL of 50% CH3OH, and 50 µL of homogenate was added to 200 µL of ice-cold CH3OH containing 0.1 µM of agomelatine (internal standard). The mixture was vortexed and centrifuged at 15000 g for 15 min, and supernatants were transferred into sample vials for analysis. CDD-2807 was analyzed by the same method used in the pharmacokinetic study. The concentration of CDD-2807 in the testis and brain was determined by […]
# using individual calibration curves established with the corresponding tissue homogenates from untreated mice. The calibration curve was regressed with a weight of 1/x2 with high linearity (r2 […]
# Spatial distribution of CDD-2807 in testis. The testis from the mice treated with CDD-2807 were attached to the Leica CM3050 S cryostat (Leica Biosystems, Deer Park, IL) with water and then sectioned at the thickness of 10 μm at −20°C. The sections were attached to electrically conductive glass slides coated with indium tin oxide ([…], 70-100 ohms, Delta Technologies, Loveland, CO). Tissue sections were sprayed with a matrix solution containing 35 mg/mL 2,5-dihydroxybenzoic acid (DHB, Sigma, St. Louis, MO) in 70% aqueous CH3OH with 0.1% trifluoroacetic acid using an HTX TM-Sprayer (HTX Technologies LLC, Carrboro, NC). Sprayer nozzle temperature was set at 70°C, tray temperature at 40°C, nozzle velocity at 1200 mm/min, […]
# Chain of CLK1 (P49759 whole entry): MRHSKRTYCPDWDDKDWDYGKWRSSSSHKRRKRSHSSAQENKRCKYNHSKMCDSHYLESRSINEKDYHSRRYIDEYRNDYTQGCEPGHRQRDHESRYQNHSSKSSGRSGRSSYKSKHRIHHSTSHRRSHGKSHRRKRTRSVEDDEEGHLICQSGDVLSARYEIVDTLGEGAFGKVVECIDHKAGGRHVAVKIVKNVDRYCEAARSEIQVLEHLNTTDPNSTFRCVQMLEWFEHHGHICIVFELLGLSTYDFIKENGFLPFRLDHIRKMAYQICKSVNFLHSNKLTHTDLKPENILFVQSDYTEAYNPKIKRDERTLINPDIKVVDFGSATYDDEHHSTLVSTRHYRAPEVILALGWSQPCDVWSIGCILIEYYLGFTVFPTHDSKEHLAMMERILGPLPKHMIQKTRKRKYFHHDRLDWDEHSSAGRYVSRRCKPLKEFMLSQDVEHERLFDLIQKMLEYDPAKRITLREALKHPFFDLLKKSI
structure (smiles),measurement,setting,value
O=C(c1ccc2[nH]nc(C#Cc3ccccc3-c3ccccc3)c2c1)N1CC2(CCCNC2)C1 [CDD-2807],Ki,CLK1,3.1 nM
same,sperm with morphologic defects (abnormal sperm) by SEM,male mice,94.7 ± 2.7%
same,concentration at 7 day,"[1]; C57/129 hybrid, mouse, testis, intraperitoneal, 50 mg/kg/day over 7 days",~24000 ng/g
same,concentration at 45 day,"[1]; male, C57/129 hybrid, mouse, testis, ip, protocol 1 (15 mg/kg i.p. twice per day), day 45",89600 ± 14100 ng/g
same,concentration at 63 day,"[1]; male, C57/129 hybrid, mouse, testis, ip, protocol 2 (50 mg/kg i.p. once per day), day 63",114000 ± 7900 ng/g
same,CDD-2807 in brain,"[1]; protocol 1, day 45, collection 12 hours after dosing",0.28 ± 0.09 ng of CDD-2807 per milligram of tissue
same,CDD-2807 in lung,[1]; protocol 1 and 2 mice,low levels
same,CDD-2807 in brain,"[1]; protocol 2, day 63, collection 24 hours after dosing",undetectable

# — article PMC11842024, “Reversible male contraception by targeted inhibition of serine/threonine kinase 33” (Science (New York, N.Y.), 2024)
